Drawing on US12252484B2, “Pyrazolopyridine compounds for the treatment of autoimmune disease” (Hoffmann-La Roche Inc., priority 2018, dated 2025), this text covers IC50 for 19 compounds.

Each structure is given as a SMILES string.

The assay deals with T1, human TLR8 (Homo sapiens, UniProt Q9NR97).
T1 sequence (Q9NR97 27-1041): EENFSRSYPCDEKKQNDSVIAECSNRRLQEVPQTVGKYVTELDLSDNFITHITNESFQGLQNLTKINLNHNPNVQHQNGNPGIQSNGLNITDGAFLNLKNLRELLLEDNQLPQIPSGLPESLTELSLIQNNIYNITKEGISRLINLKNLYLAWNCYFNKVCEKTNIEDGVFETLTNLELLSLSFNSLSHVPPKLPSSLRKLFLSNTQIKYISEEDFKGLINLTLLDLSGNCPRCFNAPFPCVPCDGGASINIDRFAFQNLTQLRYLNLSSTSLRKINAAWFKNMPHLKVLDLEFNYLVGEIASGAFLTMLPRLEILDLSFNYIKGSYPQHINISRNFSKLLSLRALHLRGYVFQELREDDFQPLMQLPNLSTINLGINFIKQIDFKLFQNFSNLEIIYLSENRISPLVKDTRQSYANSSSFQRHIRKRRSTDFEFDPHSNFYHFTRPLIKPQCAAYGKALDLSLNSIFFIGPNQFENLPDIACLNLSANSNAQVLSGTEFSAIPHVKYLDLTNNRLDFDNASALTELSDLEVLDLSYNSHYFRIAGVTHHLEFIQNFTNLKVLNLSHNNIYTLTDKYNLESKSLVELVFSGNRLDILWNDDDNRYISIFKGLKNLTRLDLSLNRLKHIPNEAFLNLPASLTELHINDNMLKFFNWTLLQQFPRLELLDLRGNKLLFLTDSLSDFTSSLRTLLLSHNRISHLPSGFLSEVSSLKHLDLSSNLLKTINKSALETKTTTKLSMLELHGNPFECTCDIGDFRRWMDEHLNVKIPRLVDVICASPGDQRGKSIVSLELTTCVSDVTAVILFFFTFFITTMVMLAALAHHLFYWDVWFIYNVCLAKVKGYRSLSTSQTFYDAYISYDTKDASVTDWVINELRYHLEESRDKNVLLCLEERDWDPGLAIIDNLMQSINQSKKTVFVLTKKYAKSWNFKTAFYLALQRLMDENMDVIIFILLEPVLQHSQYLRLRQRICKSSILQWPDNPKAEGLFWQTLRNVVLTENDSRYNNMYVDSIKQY
Kind of assay: HEK293-Blue-hTLR-8 cells assay (SEAP reporter, R848 stimulation). The assay is classed as cell-based. To be noted: HEK293-Blue-hTLR-8 cells, R848 ligand, 20 hrs incubation; read-out: TLR8 IC50. As to the method: The following tests were carried out in order to determine the activity of the compounds of formula (I) in HEK293-Blue-hTLR-7/8/9 cells assay.
HEK293-Blue-hTLR-8 Cells Assay:
A stable HEK293-Blue-hTLR-8 cell line was purchased from InvivoGen (Cat. #: hkb-htlr8, San Diego, California, USA). These cells were originally designed for studying the stimulation of human TLR8 by monitoring the activation of NF-κB. A SEAP (secreted embryonic alkaline phosphatase) reporter gene was placed under the control of the IFN-β minimal promoter fused to five NF-κB and AP-1-binding sites. The SEAP was induced by activating NF-κB and AP-1 via stimulating HEK-Blue hTLR8 cells with TLR8 ligands. Therefore the reporter expression was declined by TLR8 antagonist under the stimulation of a ligand, such as R848, for incubation of 20 hrs. The cell culture supernatant SEAP reporter activity was determined using QUANTI-Blue™ kit (Cat. #: rep-qb1, Invivogen, San Diego, Ca, USA) at a wavelength of 640 nm, a detection medium that turns purple or blue in the presence of alkaline phosphatase.
HEK293-Blue-hTLR8 cells were incubated at a density of 250,000˜450,000 cells/mL in a volume of 170 μL in a 96-well plate in Dulbecco's Modified Eagle's medium (DMEM) containing 4.5 g/L glucose, 50 U/mL penicillin, […], […], 2 mM L-glutamine, 10% (v/v) heat-inactivated fetal bovine serum with addition of 20 μL test compound in a serial dilution in the presence of final DMSO at 1% and 10 μL of 60 uM R848 in above DMEM, perform incubation under 37° C. in a CO2 incubator for 20 hrs. Then 20 μL of the supernatant from each well was incubated with 180 μL Quanti-blue substrate solution at 37° C. for 2 hrs and the absorbance was read at 620˜655 nm using a spectrophotometer. The signalling pathway that TLR8 activation leads to downstream NF-κB activation has been widely accepted, and therefore similar reporter assay was modified for evaluating TLR8 antagonist.

As usually defined, the IC50 is the point on the concentration scale where inhibition reaches its midpoint. `C[C@@H]1CN(c2ccc(C#N)n3nccc23)C[C@H](C(=O)NC2CCCNCC2)O1` (stereo partly drawn) [Example 6, (2R,6R)-N-(azepan-4-yl)-4-(7-cyanopyrazolo[1,5-a]pyridin-4-yl)-6-methyl-morpholine-2-carboxamide]: the IC50 was 11 nM.
Consider `C[C@@H]1CN(c2ccc(C#N)n3nccc23)C[C@H](C(=O)NC2CNC[C@H]2F)O1` (stereo partly drawn) [Example 5, Cis-(2R,6R)-4-(7-cyanopyrazolo[1,5-a]pyridin-4-yl)-6-methyl-N-(4-fluoropyrrolidin-3-yl) morpholine-2-carboxamide], for which the IC50 is 47 nM.
For the compound `C[C@@H]1CN(c2ccc(C#N)n3nccc23)C[C@H](C(=O)NC2CC3CCC(C2)N3)O1` (stereo partly drawn) [Example 23, Exo-(2R,6R)-N-[8-azabicyclo[3.2.1]octan-3-yl]-4-(7-cyanopyrazolo[1,5-a]pyridin-4-yl)-6-methyl-morpholine-2-carboxamide], the IC50 was found to be 74 nM.
Take `C[C@@H]1CN(c2ccc(C#N)n3nccc23)C[C@H](C(=O)Nc2ccc(C(=O)N3CCNCC3)cc2)O1` [Example 42, (2R,6R)-4-(7-cyanopyrazolo[1,5-a]pyridin-4-yl)-6-methyl-N-[4-(piperazine-1-carbonyl)phenyl]morpholine-2-carboxamide]: the IC50 is 62 nM.
Regarding `C[C@@H]1CN(c2ccc(C#N)n3nccc23)C[C@H](C(=O)NC23CC(CO)(C2)C3)O1` [Example 15, (2R,6R)-4-(7-cyanopyrazolo[1,5-a]pyridin-4-yl)-N-[3-(hydroxymethyl)-1-bicyclo[1.1.1]pentanyl]-6-methyl-morpholine-2-carboxamide], the IC50 came out at 710 nM.
The same measure for `C[C@@H]1CN(c2ccc(C#N)n3nccc23)C[C@H](C(=O)NC2CC3CCCC(C2)N3)O1` (stereo partly drawn) [Example 14, (2R,6R)-N-(9-azabicyclo[3.3.1]nonan-3-yl)-4-(7-cyanopyrazolo[1,5-a]pyridin-4-yl)-6-methyl-morpholine-2-carboxamide]: 30 nM; for `C[C@@H]1CN(c2ccc(C#N)n3nccc23)C[C@H](C(=O)NC2(C)CCNCC2)O1` [Example 19, (2R,6R)-4-(7-cyanopyrazolo[1,5-a]pyridin-4-yl)-6-methyl-N-(4-methyl-4-piperidyl)morpholine-2-carboxamide]: 27 nM; for `C[C@@H]1CN(c2ccc(C#N)n3nccc23)C[C@H](C(=O)NC2CCNCC2)O1` [Example 24, (2R,6R)-4-(7-cyanopyrazolo[1,5-a]pyridin-4-yl)-6-methyl-N-(4-piperidyl)morpholine-2-carboxamide]: 37 nM.
Then `C[C@@H]1CN(c2ccc(C#N)n3nccc23)C[C@H](C(=O)N[C@H]2CNC[C@H]2F)O1` [Example 2, (2R,6R)-4-(7-cyanopyrazolo[1,5-a]pyridin-4-yl)-N-[(3S,4R)-4-fluoropyrrolidin-3-yl]-6-methyl-morpholine-2-carboxamide], with 160 nM; and `C[C@@H]1CN(c2ccc(C#N)n3nccc23)C[C@H](C(=O)NC2CC3CC2CN3)O1` (stereo partly drawn) [Example 36, (2R,6R)-N-(2-azabicyclo[2.2.1]heptan-5-yl)-4-(7-cyanopyrazolo[1,5-a]pyridin-4-yl)-6-methyl-morpholine-2-carboxamide], with 830 nM; and `C[C@@H]1CN(c2ccc(C#N)n3nccc23)C[C@H](C(=O)N2CC(N)C2)O1` [Example 8, 4-[(2R,6R)-2-(3-aminoazetidine-1-carbonyl)-6-methyl-morpholin-4-yl]pyrazolo[1,5a]pyridine-7-carbonitrile], with 520 nM.
For the compound `C[C@H]1C[C@@H](N)CN(c2ccc(C#N)n3nccc23)C1` [Example 43, 4-[(3R,5S)-3-amino-5-methyl-1-piperidyl]pyrazolo[1,5-a]pyridine-7-carbonitrile], the IC50 was found to be 12 nM.
For `C[C@@H]1CN(c2ccc(C#N)n3nccc23)C[C@H](C(=O)NC2CN(C)CC23CC3)O1` (stereo partly drawn) [Example 32, (2R,6R)-4-(7-cyanopyrazolo[1,5-a]pyridin-4-yl)-6-methyl-N-(5-methyl-5-azaspiro[2.4]heptan-7-yl)morpholine-2-carboxamide], the IC50 was found to be 31 nM.
Then `C[C@@H]1CN(c2ccc(C#N)n3nccc23)C[C@H](C(=O)NC2CC3CCC(C2)N3C)O1` (stereo partly drawn) [Example 33, (2R,6R)-4-(7-cyanopyrazolo[1,5-a]pyridin-4-yl)-6-methyl-N-(8-methyl-8-azabicyclo[3.2.1]octan-3-yl)morpholine-2-carboxamide], with 58 nM.
In the case of `C[C@@H]1CN(c2ccc(C#N)n3nccc23)C[C@H](C(=O)NCC2CCNC2)O1` (stereo partly drawn) [Example 40, (2R,6R)-4-(7-cyanopyrazolo[1,5-a]pyridin-4-yl)-6-methyl-N-(pyrrolidin-3-ylmethyl)morpholine-2-carboxamide], the IC50 amounted to 380 nM.
Consider `COCCNC(=O)[C@H]1CN(c2ccc(C#N)n3nccc23)C[C@@H](C)O1` [Example 9, (2R,6R)-4-(7-cyanopyrazolo[1,5-a]pyridin-4-yl)-N-(2-methoxyethyl)-6-methyl-morpholine-2-carboxamide], for which the IC50 came to 860 nM.
As to `C[C@@H]1CN(c2ccc(C#N)n3nccc23)C[C@H](C(=O)NC2C3CCC2CNC3)O1` (stereo partly drawn) [Example 26, (2R,6R)-N-(3-azabicyclo[3.2.1]octan-8-yl)-4-(7-cyanopyrazolo[1,5-a]pyridin-4-yl)-6-methyl-morpholine-2-carboxamide], the IC50 stood at 93 nM.
`CCC(C)(C)NC(=O)[C@H]1CN(c2ccc(C#N)n3nccc23)C[C@@H](C)O1` [Example 17, (2R,6R)-4-(7-cyanopyrazolo[1,5-a]pyridin-4-yl)-N-(1,1-dimethylpropyl)-6-methyl-morpholine-2-carboxamide]: the IC50 stood at 100 nM.
With `C[C@@H]1CN(c2ccc(C#N)n3nccc23)C[C@H](C(=O)N2CCC3(CCNCC3)CC2)O1` [Example 28, 4-[(2R,6R)-2-(3,9-diazaspiro[5.5]undecane-3-carbonyl)-6-methyl-morpholin-4-yl]pyrazolo[1,5a]pyridine-7-carbonitrile], the IC50 turned out to be 97 nM.
